Here are results for five compounds from article PMC7718943, “In silico molecular target prediction unveils mebendazole as a potent MAPK14 inhibitor” (Molecular Oncology, 2020).

One experiment has as its target T1, ABL1 (Homo sapiens, UniProt P00519).
T1 construct: commercial enzyme of Promega kinase assay
Description: ADP-Glo kinase assay. Format: biochemical. On the technique in general: ADP-Glo turns the ADP formed in a reaction into a luminescent signal.

A further experiment has as its target T2, ERK2 (MAPK1) (Homo sapiens, UniProt P28482).
T2 construct: commercial enzyme of Promega kinase assay
Nature of the experiment: ADP-Glo kinase assay. Conditions: read-out: IC50 value (μM) ± SD / ERK2. Format: biochemical. An excerpt:
ADP-Glo kinase assay on ERK2 (MAPK1)

The next experiment addresses T3, MAPK14 (MAPK14/p38α) (Homo sapiens, UniProt Q16539).
T3 construct: commercial enzyme of Promega kinase assay
Nature of the experiment: ADP-Glo kinase assay. Format: biochemical. Conditions: read-out: IC50 value (μM) ± SD / MAPK14.

Experiment [1] deals with T4, MAPK14 (wild-type, His-tagged, pET28a) (Homo sapiens, UniProt Q16539).
T4 construct: wild type, pET28a vector, His tag conserved for ITC and TSA
T4 sequence (Q16539 whole entry): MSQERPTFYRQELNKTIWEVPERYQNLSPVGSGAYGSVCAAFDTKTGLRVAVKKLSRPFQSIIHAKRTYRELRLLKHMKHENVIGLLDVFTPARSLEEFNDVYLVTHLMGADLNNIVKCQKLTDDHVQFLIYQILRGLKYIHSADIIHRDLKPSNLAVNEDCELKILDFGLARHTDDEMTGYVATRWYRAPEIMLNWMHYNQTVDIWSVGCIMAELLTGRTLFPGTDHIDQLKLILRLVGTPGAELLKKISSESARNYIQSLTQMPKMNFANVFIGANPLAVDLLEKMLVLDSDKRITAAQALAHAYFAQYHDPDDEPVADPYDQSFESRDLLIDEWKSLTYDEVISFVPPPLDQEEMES
Nature of the experiment: fluorescence thermal shift assay. Conditions: read-out: dTm. Format: binding.

Experiment [2] deals with T4, MAPK14 (wild-type, His-tagged, pET28a). Nature of the experiment: isothermal titration calorimetry. Format: binding. (Isothermal titration calorimetry measures the heat released or taken up as one component is titrated into another.)
Where [3] appears, read: read-out: IC50 value (μM) ± SD / ABL1.

Molecules are shown by their SMILES. Like-named read-outs stand apart in the source and are kept apart here.

T2 sequence (P28482 2-360): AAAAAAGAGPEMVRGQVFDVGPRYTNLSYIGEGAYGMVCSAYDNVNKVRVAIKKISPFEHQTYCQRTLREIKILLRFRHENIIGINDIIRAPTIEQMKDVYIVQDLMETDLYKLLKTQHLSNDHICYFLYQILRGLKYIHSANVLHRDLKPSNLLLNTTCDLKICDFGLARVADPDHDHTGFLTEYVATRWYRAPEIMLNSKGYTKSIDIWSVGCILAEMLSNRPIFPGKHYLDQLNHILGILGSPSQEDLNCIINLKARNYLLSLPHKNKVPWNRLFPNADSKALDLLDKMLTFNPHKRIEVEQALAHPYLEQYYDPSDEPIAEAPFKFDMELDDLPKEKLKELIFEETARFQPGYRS
T3 sequence (Q16539 2-360): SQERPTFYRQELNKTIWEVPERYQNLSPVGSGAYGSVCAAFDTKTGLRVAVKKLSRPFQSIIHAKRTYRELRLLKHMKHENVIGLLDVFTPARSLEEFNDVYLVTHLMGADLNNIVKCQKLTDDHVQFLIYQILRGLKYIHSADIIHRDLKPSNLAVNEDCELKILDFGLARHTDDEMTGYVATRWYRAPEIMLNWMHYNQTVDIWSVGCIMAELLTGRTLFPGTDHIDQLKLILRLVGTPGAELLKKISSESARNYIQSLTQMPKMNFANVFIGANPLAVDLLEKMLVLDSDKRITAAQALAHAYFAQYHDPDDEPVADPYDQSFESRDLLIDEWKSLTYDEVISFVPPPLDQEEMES
T1 sequence (P00519 whole entry): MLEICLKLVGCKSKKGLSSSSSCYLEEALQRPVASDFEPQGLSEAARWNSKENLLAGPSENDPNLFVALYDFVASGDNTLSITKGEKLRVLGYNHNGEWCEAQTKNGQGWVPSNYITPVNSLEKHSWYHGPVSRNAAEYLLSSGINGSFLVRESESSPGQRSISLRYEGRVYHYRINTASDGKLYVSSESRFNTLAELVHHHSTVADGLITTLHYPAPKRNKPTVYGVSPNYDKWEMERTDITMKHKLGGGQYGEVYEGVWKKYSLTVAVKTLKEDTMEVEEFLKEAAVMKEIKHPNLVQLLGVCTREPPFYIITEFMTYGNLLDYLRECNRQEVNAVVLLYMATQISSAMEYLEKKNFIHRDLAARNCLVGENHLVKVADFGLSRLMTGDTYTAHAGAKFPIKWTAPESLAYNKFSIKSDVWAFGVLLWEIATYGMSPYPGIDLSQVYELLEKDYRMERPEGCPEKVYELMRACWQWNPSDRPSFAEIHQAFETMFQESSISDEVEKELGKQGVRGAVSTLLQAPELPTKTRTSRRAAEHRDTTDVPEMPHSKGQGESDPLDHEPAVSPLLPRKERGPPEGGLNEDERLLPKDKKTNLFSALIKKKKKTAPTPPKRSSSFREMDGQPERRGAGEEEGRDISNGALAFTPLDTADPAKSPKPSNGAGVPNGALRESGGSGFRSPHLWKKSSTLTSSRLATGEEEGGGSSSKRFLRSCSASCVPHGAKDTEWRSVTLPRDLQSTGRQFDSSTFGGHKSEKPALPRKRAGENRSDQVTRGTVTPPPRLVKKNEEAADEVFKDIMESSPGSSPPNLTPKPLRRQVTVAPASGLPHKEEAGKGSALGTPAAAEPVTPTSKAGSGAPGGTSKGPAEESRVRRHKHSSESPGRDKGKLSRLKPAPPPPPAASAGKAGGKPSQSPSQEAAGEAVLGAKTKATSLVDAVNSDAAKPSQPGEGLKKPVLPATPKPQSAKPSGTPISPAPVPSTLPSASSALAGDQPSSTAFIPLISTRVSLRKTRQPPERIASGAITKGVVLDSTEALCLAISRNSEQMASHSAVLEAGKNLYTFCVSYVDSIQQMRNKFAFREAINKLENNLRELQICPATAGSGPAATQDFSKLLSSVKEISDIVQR

With `COC(=O)Nc1nc2ccc(C(=O)c3cccs3)cc2[nH]1` [Nocodazole], the IC50 at ABL1 (read-out: IC50) stood at 0.078 ± 0.034 µM; at ERK2 (MAPK1) it was 26.9 ± 16.2 µM; at MAPK14 (MAPK14/p38α) it was 2.8 ± 5.6 µM.
Take `COC(=O)Nc1nc2ccc(Sc3ccccc3)cc2[nH]1` [Fenbendazole]: the figures for the IC50 on ABL1 (setting [3]), on ERK2 (MAPK1) and at MAPK14 (MAPK14/p38α) were 0.19 ± 0.07 µM, above 50 µM and 10.7 ± 4.9 µM, respectively.
On to `CCCSc1ccc2nc(NC(=O)OC)[nH]c2c1` [Albendazole], for which the values for the IC50 on ABL1 (setting [3]), on ERK2 (MAPK1) and on MAPK14 (MAPK14/p38α) were 0.9 ± 0.6 µM, 3.4 ± 1.5 µM and above 50 µM, respectively.
For `COC(=O)Nc1nc2cc(C(=O)c3ccc(F)cc3)ccc2[nH]1` [Flubendazole] the same measures were 0.11 ± 0.05 µM, 15.9 ± 8 µM and 5.5 ± 2.7 µM.
On to `COC(=O)Nc1nc2ccc(C(=O)c3ccccc3)cc2[nH]1` [Mebendazole], for which the IC50 at ABL1 (setting [3]) amounted to 0.35 ± 0.12 µM; at ERK2 (MAPK1) it was 24.7 ± 10.4 µM. Moreover, in experiment [1], the ΔTm at 50 µM amounted to 3.7 °C. The Kd in experiment [2] is 1.27 ± 0.02 µM.

For orientation: Kd means a measure of binding affinity in units of concentration. Low readings indicate tighter binding, high ones weaker binding.
